# Laboratory results taken from patent US20070128217A1 (priority 2003, published 2007).
# Tests used:
# [1] = test system: control sera (pooled serum of ten healthy LUMC hospital workers; commercial negative donor pooled serum from the Dutch bloodbank); assay type: binding, human; set-up: Binding of Control serum LUMC to linear peptides / Binding of Control serum Blood-bank to linear peptides / Binding of Control serum LUMC to looped peptides / Binding of Control Serum Blood-Bank to Looped peptides / Binding of Control serum LUMC to linear peptides of the protein M of SARS-CoV Urbani / Binding of Control serum Blood-bank to linear peptides of the protein M of SARS-CoV Urbani / Binding of Control serum LUMC to looped peptides of the protein M of SARS-CoV Urbani / Binding of Control Serum Blood-Bank to Looped peptides of the protein M of SARS-CoV Urbani: unit not given here
# [2] = test system: rabbit serum obtained by immunizing a rabbit with the SARS-CoV strain Frankfurt 1; assay type: binding; set-up: Binding of a rabbit serum to linear peptides / Binding of a rabbit serum to looped peptides / Rabbit serum linear peptides / Rabbit serum looped peptides / Binding of a rabbit serum to linear peptides of protein N of SARS-CoV Urbani (Rabbit serum linear peptides) / Binding of a rabbit serum to looped/cyclic peptides of protein N of SARS-CoV Urbani (Rabbit serum looped peptides): unit not given here
# [3] = test system: antibodies in sera from SARS patients (sera 1a, 1b, 2, 6, 37, 62, London, SARS-yellow, SARS-green); assay type: binding, human; set-up: Binding of serum 6 to linear peptides of protein X1 of SARS-CoV Urbani / Binding of serum 37 to linear peptides of protein X1 of SARS-CoV Urbani / Binding of serum 6 to looped/cyclic peptide (PEPSCAN-ELISA) / Binding of serum 37 to looped/cyclic peptide (PEPSCAN-ELISA) / Binding of serum 37 to looped/cyclic peptides of protein X1 of SARS-CoV Urbani / Binding of serum 6 to linear peptides of protein X2 / Binding of serum 37 to linear peptides of protein X2 / Binding of serum 37 to looped/cyclic peptides of protein X2 of SARS-CoV Urbani / Binding of serum 6 to linear peptides of protein M of SARS-CoV Urbani / Binding of serum 37 to linear peptides of protein M of SARS-CoV Urbani / Binding of serum 6 to looped/cyclic peptides of protein M of SARS-CoV Urbani / Binding of serum 37 to looped/cyclic peptides of protein M of SARS-CoV Urbani / Binding of serum 6 to linear peptides of protein X3 of SARS-CoV Urbani / Binding of serum 37 to linear peptides of protein X3 of SARS-CoV Urbani / Binding of serum 37 to looped/cyclic peptides of protein X3 of SARS-CoV Urbani / Binding of serum 6 to linear peptides of protein X4 of SARS-CoV Urbani / Binding of serum 37 to linear peptides of protein X4 of SARS-CoV Urbani / Binding of serum 37 to looped/cyclic peptides of protein X4 of SARS-CoV Urbani / Binding of serum 6 to linear peptides of protein X5 of SARS-CoV Urbani / Binding of serum 37 to linear peptides of protein X5 of SARS-CoV Urbani / Binding of serum 37 to looped/cyclic peptides of protein X5 of SARS-CoV Urbani / Binding of serum 6 to linear peptides of protein N of SARS-CoV Urbani / Binding of serum 37 to linear peptides of protein N of SARS-CoV Urbani / Binding of serum 6 to linear peptide (PEPSCAN-ELISA) / Binding of serum 1a to looped/cyclic peptides of protein N of SARS-CoV Urbani / Binding of serum 1b to looped/cyclic peptides of protein N of SARS-CoV Urbani / Binding of serum 2 to looped/cyclic peptides of protein N of SARS-CoV Urbani / Binding of serum 6 to looped/cyclic peptides of protein N of SARS-CoV Urbani / Binding of serum 37 to looped/cyclic peptides of protein N of SARS-CoV Urbani / Binding of serum 62 to looped/cyclic peptides of protein N of SARS-CoV Urbani / Binding of serum London to looped/cyclic peptides of protein N of SARS-CoV Urbani / Binding of serum SARS-green to looped/cyclic peptides of protein N of SARS-CoV Urbani: unit not given here
Sequence,Binding of Control Serum Blood-Bank to Looped peptides [1],Binding of Control serum Blood-bank to linear peptides [1],Binding of Control serum LUMC to linear peptides [1],Binding of Control serum LUMC to looped peptides [1],Binding of a rabbit serum to linear peptides [2],Binding of a rabbit serum to looped peptides [2],Binding of serum 1a to linear peptides of protein X1 of SARS-CoV Urbani [3],Binding of serum 1a to looped/cyclic peptides of protein X1 of SARS-CoV Urbani [3],Binding of serum 1b to linear peptides of protein X1 of SARS-CoV Urbani [3],Binding of serum 1b to looped/cyclic peptides of protein X1 of SARS-CoV Urbani [3],Binding of serum 2 to linear peptides of protein X1 of SARS-CoV Urbani [3],Binding of serum 2 to looped/cyclic peptides of protein X1 of SARS-CoV Urbani [3],Binding of serum 6 to linear peptides of protein X1 of SARS-CoV Urbani [3],Binding of serum 6 to looped/cyclic peptides of protein X1 of SARS-CoV Urbani [3],Binding of serum 37 to linear peptides of protein X1 of SARS-CoV Urbani [3],Binding of serum 37 to looped/cyclic peptides of protein X1 of SARS-CoV Urbani [3],Binding of serum 62 to linear peptides of protein X1 of SARS-CoV Urbani [3],Binding of serum 62 to looped/cyclic peptides of protein X1 of SARS-CoV Urbani [3],Binding of serum London to linear peptides of protein X1 of SARS-CoV Urbani [3],Binding of serum London to looped/cyclic peptides of protein X1 of SARS-CoV Urbani [3],also measured
VVTEGDGISTPKLKE,0.3,0.3,0.2,0.3,0.1,0.4,0.5,0.3,0.4,0.3,0.3,0.1,0.2,0.2,0.4,0.3,0.3,0.3,0.3,0.2,Binding of serum SARS-green to linear peptides of protein X1 of SARS-CoV Urbani [3]: 0.1; Binding of serum SARS-green to looped/cyclic peptides of protein X1 of SARS-CoV Urbani [3]: 0.1; Binding of serum SARS-yellow to linear peptides of protein X1 of SARS-CoV Urbani [3]: 0.1; Binding of serum SARS-yellow to looped/cyclic peptides of protein X1 of SARS-CoV Urbani [3]: 0.2
VYYQLESTQITTDTG,0.3,0.4,0.4,0.3,0.1,0.5,0.6,0.4,0.5,0.2,0.4,0.1,0.4,0.1,0.6,0.4,0.5,0.3,0.2,0.2,Binding of serum SARS-green to linear peptides of protein X1 of SARS-CoV Urbani [3]: 0.2; Binding of serum SARS-green to looped/cyclic peptides of protein X1 of SARS-CoV Urbani [3]: 0.2; Binding of serum SARS-yellow to linear peptides of protein X1 of SARS-CoV Urbani [3]: 0.3; Binding of serum SARS-yellow to looped/cyclic peptides of protein X1 of SARS-CoV Urbani [3]: 0.1
